Laboratory results taken from ChEMBL document CHEMBL3758163, “Extended structure-activity study of thienopyrimidine-based EGFR inhibitors with evaluation of drug-like properties” (Eur J Med Chem, 2016).
Converted amounts (≈) assume the structure as drawn.

Experiments:
[1] = target: Receptor tyrosine-protein kinase erbB-2 (Homo sapiens) (UniProt P04626); assay: Inhibition of ERBB2 (unknown origin) at 500 nM
[2] = target: T1, Testis-specific serine/threonine-protein kinase 2 (Homo sapiens) (UniProt Q96PF2); assay: Inhibition of STK22B (unknown origin) at 500 nM
T1 sequence (whole entry): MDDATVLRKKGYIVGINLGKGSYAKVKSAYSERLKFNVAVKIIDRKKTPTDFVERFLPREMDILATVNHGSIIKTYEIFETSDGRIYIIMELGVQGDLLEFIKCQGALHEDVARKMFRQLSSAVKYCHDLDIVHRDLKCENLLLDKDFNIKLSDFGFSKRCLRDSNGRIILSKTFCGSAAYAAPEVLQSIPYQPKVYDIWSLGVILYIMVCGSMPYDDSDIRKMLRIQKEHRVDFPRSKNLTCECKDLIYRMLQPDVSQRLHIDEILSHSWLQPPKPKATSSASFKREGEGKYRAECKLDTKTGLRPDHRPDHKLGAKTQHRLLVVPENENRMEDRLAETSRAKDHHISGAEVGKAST

[3] = target: MAP kinase-activated protein kinase 2 (Homo sapiens) (UniProt P49137); assay: Inhibition of MAPKAPK2 (unknown origin) at 500 nM
[4] = target: Epidermal growth factor receptor (Homo sapiens, UniProt P00533); assay: Inhibition of EGFR (unknown origin) by Z -LYTE assay
Epidermal growth factor receptor, sequence (P00533 whole entry): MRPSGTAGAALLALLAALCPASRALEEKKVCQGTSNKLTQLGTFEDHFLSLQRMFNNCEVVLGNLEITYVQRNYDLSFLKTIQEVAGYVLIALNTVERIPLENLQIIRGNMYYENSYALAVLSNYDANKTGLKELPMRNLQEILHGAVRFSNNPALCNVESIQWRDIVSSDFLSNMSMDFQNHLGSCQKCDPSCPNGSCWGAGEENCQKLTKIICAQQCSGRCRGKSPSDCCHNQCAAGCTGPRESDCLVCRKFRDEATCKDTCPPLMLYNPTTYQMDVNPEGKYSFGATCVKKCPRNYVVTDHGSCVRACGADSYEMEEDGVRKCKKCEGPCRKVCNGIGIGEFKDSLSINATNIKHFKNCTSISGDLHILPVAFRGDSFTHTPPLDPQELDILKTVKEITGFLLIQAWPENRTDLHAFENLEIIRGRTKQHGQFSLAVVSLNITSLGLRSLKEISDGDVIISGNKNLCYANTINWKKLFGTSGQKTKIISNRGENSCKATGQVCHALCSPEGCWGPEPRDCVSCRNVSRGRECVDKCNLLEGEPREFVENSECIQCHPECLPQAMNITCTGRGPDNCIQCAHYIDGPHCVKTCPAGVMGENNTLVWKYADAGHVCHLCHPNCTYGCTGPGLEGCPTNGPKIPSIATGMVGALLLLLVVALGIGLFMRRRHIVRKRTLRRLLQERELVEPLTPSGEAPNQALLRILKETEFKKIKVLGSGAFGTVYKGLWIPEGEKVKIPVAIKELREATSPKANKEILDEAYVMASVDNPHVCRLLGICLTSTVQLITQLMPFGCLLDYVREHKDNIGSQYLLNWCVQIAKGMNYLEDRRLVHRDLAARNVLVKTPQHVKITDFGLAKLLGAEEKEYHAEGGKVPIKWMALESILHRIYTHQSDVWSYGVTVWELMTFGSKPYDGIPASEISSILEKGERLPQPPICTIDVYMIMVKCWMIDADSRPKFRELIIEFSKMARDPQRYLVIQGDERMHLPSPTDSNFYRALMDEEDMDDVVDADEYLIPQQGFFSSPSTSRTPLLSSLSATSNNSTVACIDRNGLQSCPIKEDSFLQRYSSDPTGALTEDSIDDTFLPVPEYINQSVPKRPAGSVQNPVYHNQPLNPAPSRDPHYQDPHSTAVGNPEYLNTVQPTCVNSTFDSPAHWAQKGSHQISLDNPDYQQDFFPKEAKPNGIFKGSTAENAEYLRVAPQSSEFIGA

[5] = target: Proto-oncogene tyrosine-protein kinase Src (Homo sapiens) (UniProt P12931); assay: Inhibition of SRC (unknown origin) at 500 nM
[6] = target: T2, Aurora kinase A (Homo sapiens) (UniProt O14965); assay: Inhibition of AURKA (unknown origin) at 500 nM
T2 sequence (whole entry): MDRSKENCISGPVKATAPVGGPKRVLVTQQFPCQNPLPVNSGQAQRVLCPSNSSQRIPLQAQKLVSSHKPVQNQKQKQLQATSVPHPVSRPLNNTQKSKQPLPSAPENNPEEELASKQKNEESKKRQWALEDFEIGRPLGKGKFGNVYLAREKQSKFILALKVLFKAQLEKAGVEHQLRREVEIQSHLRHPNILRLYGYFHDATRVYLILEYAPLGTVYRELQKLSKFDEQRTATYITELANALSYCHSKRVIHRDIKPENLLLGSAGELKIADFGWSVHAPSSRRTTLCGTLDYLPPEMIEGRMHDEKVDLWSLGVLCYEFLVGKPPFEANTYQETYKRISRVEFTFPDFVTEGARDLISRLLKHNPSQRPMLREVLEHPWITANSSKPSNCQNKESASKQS

[7] = in vitro; conditions: human, Caco-2
Description: Efflux ratio of permeability from basolateral to apical side over apical to basolateral side in human Caco2 cells at 10 uM by LC-MS/MS analysis

[8] = target: Tyrosine-protein kinase JAK2 (Homo sapiens) (UniProt O60674); assay: Inhibition of JAK2 (unknown origin) at 500 nM
Tyrosine-protein kinase JAK2 (Homo sapiens), sequence (O60674 whole entry): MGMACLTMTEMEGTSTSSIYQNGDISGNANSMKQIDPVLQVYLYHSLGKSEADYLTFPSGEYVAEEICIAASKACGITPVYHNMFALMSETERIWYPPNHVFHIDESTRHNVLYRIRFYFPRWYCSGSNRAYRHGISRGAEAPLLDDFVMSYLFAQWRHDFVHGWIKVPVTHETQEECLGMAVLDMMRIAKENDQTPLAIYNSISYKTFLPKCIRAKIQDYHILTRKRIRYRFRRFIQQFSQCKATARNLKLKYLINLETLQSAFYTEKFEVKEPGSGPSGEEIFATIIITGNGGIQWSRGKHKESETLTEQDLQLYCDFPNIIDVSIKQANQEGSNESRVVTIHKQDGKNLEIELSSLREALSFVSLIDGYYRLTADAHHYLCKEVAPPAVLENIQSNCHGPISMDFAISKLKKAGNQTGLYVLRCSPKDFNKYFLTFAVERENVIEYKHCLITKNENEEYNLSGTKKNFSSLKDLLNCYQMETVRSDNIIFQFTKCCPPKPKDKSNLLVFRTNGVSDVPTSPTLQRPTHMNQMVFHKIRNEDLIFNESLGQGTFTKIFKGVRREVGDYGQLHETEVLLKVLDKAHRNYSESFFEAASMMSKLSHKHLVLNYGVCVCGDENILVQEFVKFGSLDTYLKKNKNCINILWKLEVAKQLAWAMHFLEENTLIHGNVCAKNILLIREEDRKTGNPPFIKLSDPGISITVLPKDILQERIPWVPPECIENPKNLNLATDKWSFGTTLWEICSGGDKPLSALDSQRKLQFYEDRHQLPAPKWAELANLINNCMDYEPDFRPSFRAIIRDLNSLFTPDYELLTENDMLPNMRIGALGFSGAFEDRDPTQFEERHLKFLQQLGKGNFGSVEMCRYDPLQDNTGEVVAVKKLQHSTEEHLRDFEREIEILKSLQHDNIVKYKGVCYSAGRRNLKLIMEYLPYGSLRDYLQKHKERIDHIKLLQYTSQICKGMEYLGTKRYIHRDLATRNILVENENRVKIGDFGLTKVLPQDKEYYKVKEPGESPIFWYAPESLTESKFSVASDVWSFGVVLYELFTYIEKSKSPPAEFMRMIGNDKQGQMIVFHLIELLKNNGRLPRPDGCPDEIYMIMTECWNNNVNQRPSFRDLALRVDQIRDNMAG

[9] = target: Tyrosine-protein kinase Lyn (Homo sapiens) (UniProt P07948); assay: Inhibition of LYN B (unknown origin) at 500 nM
Tyrosine-protein kinase Lyn (Homo sapiens), sequence (P07948 2-512 limits assumed): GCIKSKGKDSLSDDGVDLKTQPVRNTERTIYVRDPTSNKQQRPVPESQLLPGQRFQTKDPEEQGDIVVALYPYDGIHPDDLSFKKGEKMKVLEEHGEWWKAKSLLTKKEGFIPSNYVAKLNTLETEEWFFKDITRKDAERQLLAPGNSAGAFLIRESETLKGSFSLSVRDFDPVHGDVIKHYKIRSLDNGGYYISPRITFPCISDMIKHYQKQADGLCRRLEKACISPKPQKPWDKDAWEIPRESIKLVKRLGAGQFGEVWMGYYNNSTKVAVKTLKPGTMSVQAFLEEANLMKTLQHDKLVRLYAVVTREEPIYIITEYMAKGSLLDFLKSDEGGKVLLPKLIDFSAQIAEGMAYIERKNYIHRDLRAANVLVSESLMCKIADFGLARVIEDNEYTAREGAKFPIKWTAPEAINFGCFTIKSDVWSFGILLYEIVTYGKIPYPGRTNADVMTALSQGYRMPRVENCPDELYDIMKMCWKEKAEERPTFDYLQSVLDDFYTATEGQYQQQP

[10] = target: Tyrosine-protein kinase Fer (Homo sapiens) (UniProt P16591); assay: Inhibition of FER (unknown origin) at 500 nM
[11] = target: cAMP-dependent protein kinase catalytic subunit alpha (Homo sapiens) (UniProt P17612); assay: Inhibition of PRKACA (unknown origin) at 500 nM
[12] = Aqueous solubility of compound in 0.01 M PBS buffer at pH 7.4 after 2 hrs by turbidimetric assay; format: physicochemical
[13] = target: Mitogen-activated protein kinase 14 (Homo sapiens) (UniProt Q16539); assay: Inhibition of MAPK14 (unknown origin) at 500 nM
Mitogen-activated protein kinase 14 (Homo sapiens), sequence (Q16539 whole entry): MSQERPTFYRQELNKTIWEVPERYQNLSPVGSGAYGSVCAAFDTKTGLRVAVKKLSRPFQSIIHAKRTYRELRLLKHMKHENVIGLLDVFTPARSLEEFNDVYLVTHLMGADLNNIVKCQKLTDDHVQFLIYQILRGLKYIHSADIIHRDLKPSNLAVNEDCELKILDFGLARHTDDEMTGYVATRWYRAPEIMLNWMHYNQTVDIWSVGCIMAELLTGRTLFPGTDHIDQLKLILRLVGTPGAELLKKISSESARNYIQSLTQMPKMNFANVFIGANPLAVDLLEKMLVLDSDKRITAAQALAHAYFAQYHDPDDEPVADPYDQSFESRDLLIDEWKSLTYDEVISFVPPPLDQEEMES

[14] = Half-life in human liver microsomes at 3 uM by LC-MS/MS analysis; format: ADME
[15] = target: Mast/stem cell growth factor receptor Kit (Homo sapiens) (UniProt P10721); assay: Inhibition of KIT (unknown origin) at 500 nM
Mast/stem cell growth factor receptor Kit (Homo sapiens), sequence (P10721 whole entry): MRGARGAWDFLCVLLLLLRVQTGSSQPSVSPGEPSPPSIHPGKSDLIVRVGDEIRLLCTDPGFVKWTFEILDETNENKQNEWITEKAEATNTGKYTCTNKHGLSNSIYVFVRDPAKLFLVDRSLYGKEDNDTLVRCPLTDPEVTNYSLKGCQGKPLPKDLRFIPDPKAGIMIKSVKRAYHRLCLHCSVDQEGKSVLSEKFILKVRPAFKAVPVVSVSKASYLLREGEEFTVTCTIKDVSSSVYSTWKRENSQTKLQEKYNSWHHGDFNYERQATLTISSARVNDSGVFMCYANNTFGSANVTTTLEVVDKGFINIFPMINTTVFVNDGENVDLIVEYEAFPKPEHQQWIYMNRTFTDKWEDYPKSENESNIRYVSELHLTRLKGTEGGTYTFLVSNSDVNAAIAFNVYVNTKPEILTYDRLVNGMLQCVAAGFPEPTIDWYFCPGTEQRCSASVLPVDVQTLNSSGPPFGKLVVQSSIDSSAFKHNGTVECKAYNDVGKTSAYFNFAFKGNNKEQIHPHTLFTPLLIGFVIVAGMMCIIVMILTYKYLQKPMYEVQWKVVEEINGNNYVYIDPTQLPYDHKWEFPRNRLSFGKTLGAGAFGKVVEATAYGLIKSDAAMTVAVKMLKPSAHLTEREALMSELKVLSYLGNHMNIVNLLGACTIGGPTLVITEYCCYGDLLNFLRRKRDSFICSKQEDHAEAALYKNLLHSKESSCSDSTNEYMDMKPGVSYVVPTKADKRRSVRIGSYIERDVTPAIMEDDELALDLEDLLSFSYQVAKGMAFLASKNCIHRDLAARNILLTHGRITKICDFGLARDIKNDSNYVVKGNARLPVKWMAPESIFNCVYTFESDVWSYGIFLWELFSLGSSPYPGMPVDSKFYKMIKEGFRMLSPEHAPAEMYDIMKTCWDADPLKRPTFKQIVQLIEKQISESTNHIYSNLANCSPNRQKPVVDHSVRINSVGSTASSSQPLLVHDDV

[16] = target: Protein kinase C theta type (Homo sapiens) (UniProt Q04759); assay: Inhibition of PRKCQ (unknown origin) at 500 nM
Protein kinase C theta type (Homo sapiens), sequence (Q04759 whole entry, looked up): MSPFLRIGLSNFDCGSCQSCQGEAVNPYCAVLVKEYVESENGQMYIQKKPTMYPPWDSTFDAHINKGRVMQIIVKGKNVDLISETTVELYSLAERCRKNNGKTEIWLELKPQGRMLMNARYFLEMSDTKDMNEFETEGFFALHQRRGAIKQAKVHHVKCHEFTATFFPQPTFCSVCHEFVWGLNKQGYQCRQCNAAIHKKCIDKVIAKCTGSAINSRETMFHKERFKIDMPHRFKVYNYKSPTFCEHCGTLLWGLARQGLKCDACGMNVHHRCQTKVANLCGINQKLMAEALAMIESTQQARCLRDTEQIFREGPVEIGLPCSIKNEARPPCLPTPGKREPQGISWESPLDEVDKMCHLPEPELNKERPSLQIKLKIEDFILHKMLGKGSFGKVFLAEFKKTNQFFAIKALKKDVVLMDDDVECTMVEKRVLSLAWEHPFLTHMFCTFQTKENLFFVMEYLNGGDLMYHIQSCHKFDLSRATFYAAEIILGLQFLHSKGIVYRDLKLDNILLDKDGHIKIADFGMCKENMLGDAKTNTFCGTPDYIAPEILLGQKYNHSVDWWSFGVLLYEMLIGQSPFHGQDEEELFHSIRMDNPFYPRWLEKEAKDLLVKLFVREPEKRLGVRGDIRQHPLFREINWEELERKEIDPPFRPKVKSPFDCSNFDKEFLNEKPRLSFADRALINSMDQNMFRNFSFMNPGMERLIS

[17] = test system: MRC5; assay: Antiproliferative activity against human MRC5 cells after 72 hrs by CellTiter-Glo assay; format: cell-based; conditions: MRC5, 72 h
[18] = test system: SW480; assay: Antiproliferative activity against human SW480 cells after 72 hrs by CellTiter-Glo assay; format: functional, cell-based; conditions: SW480, 72 h
[19] = organism: Danio rerio; assay: Toxicity in zebrafish embryo assessed as kinked tails at 50 and 100 uM; format: organism-based; conditions: in vivo
[20] = organism: Danio rerio; assay: Toxicity in zebrafish embryo assessed as effect on morphology upto 25 uM; format: organism-based; conditions: in vivo
[21] = Antiproliferative activity against human OVCAR3 cells after 72 hrs by CellTiter-Glo assay; format: functional, cell-based; conditions: OVCAR-3, 72 h
[22] = Antiproliferative activity against human BT474 cells after 72 hrs by CellTiter blue assay; format: functional, cell-based; conditions: BT-474, 72 h
[23] = Antiproliferative activity against human SKBR3 cells after 72 hrs by CellTiter blue assay; format: functional, cell-based; conditions: SK-BR-3, 72 h
[24] = Antiproliferative activity against human Hs578T cells after 72 hrs by CellTiter-Glo assay; format: functional, cell-based; conditions: Hs-578T
[25] = Antiproliferative activity against human PC9 cells after 96 hrs by Sytox green marker based fluorescence analysis; format: functional, cell-based; conditions: PC-9, 96 h
[26] = Antiproliferative activity against human Calu3 cells after 72 hrs by CellTiter blue assay; format: functional, cell-based; conditions: Calu-3, 72 h
[27] = Toxicity in zebrafish embryo assessed as morphological defects for 3.5 days; format: organism-based, Danio rerio
[28] = Antiproliferative activity against human U937 cells after 72 hrs by CellTiter blue assay; format: functional, cell-based; conditions: U-937, 72 h
[29] = test system: H9; assay: Antiproliferative activity against human H9 cells after 72 hrs by CellTiter-Glo assay; format: functional, cell-based; conditions: H9, 72 h
[30] = test system: FaDu; assay: Antiproliferative activity against human FADU cells; format: functional, cell-based
[31] = Toxicity in zebrafish embryo assessed as survival for 3.5 days; format: organism-based, Danio rerio; conditions: in vivo

SMILES | inhibition [1] | inhibition [2] | inhibition [3] | IC50 [4] | inhibition [5] | inhibition [6] | inhibition [8] | inhibition [9] | inhibition [10] | inhibition [11] | solubility kinetic at 2 h [12] | inhibition [13] | half-life at 3 µM [14] | inhibition [15] | inhibition [16] | further results
COc1ccc(C(=O)NCCN(C)C)cc1-c1cc2c(N[C@H](C)c3ccccc3)ncnc2s1 | 63% | 0% | -1% | 0.5 nM | 9% | -4% | -4% | 62% | 5% | 9% | > 100 µM | 8% | 1.93 h | -1% | 0% | efflux ratio at 10 µM [7]: 63
COc1cc(CO)ccc1-c1cc2c(Nc3ccc(F)c(Cl)c3)ncnc2s1 | 48% | 1% | 3% | 2 nM | 14% | -6% | -3% | 15% | -1% | 8% | 2 µM (≈ 0.832 µg/mL) | 6% | 2.6 h | 1% | 3% | –
CN(C)CCNC(=O)c1ccc(-c2cc3c(N[C@H](CO)c4ccccc4)ncnc3s2)cc1 | 54% | 1% | 2% | 2 nM | 17% | 6% | -3% | 37% | -4% | -5% | 65 µM (≈ 30 µg/mL) | 9% | 1.1 h | 1% | 12% | efflux ratio at 10 µM [7]: > 20
C#Cc1cccc(Nc2ncnc3cc(OCCOC)c(OCCOC)cc23)c1 [ERLOTINIB] | – | – | -1% | – | 42% | – | 25% | – | -1% | -10% | 20 µM (≈ 7.87 µg/mL) | 13% | 0.533 h | – | -4% | IC50 [17]: 5800 nM; IC50 [18]: > 100000 nM; Activity [19]: Toxic; Activity [20]: Non-toxic; IC50 [21]: 4600 nM; IC50 [22]: 13000 nM; IC50 [23]: > 100000 nM; IC50 [24]: > 100000 nM; IC50 [25]: 70 nM; IC50 [26]: 4700 nM; EC50 at 3.5 days [27]: 60000 nM; IC50 [28]: 9900 nM; IC50 [29]: 1300 nM; IC50 [30]: 18000 nM
COc1cc(CO)ccc1-c1cc2c(Nc3ccccc3)ncnc2s1 | 32% | 9% | 4% | 14 nM | 17% | -3% | -2% | 22% | 0% | 2% | – | 8% | – | 11% | -10% | –
C[C@@H](Nc1ncnc2sc(-c3ccc(C(=O)NCCN(C)C)cc3)cc12)c1ccccc1 | 40% | 11% | – | 2 nM | 18% | 3% | -10% | 41% | -4% | -6% | – | 7% | – | -5% | -5% | –
C[C@@H](Nc1ncnc2sc(-c3ccccc3C(N)=O)cc12)c1ccccc1 | -3% | 5% | -8% | 276 nM | 12% | 6% | -8% | 16% | -4% | -8% | – | 9% | – | -7% | -1% | –
COc1cc(C(N)=O)ccc1-c1cc2c(N[C@H](CO)c3ccccc3)ncnc2s1 | 37% | 11% | -7% | 1.5 nM | 20% | 6% | -2% | 57% | -3% | -5% | – | 6% | 5.13 h | -9% | -2% | Activity [19]: Toxic; Activity [20]: Non-toxic; EC50 at 3.5 days [27]: 46000 nM; LC50 at 84 h [31]: > 100000 nM
COc1cc(CO)ccc1-c1cc2c(N[C@H](C)c3ccccc3)ncnc2s1 | 57% | 8% | 1% | – | 10% | 1% | 7% | 57% | 10% | 2% | – | 1% | – | 7% | 1% | –
C#Cc1cccc(Nc2ncnc3sc(-c4ccc(CO)cc4OC)cc23)c1 | 19% | 2% | – | 5 nM | 15% | 14% | 6% | 9% | -2% | -1% | – | – | – | – | -5% | –
